Laboratory results published in paper PMC5662717, “Angiotensin II-derived constrained peptides with antiplasmodial activity and suppressed vasoconstriction” (Scientific Reports, 2017).
Where a SMILES comes first, the peptide text is derived from it. Bridges are numbered along the chain shown (N, C = ends). Where no end group is shown, it is not given here.

What was measured:
stomach fundus = tested on: stomach fundus; parameters: species or system C57BL/6 J mice; conditions: pH 7.4
Experimental: The bioassay experiment was carried out in duplicate and generated equivalent results. Experiments were carried out using C57BL/6 J mice from the Centro de Desenvolvimento de Modelos Experimentais da Universidade Federal de São Paulo (CEDEME-UNIFESP).
Stomach fundus was isolated from each mouse, divided into two strips along the longitudinal muscle, and mounted into 5 mL organ baths containing modified Krebs-Ringer solution [144 mmol L^–1 NaCl, 5 mmol L^–1 KCl, 1.1 mmol L^–1 MgSO4, 25 mmol L^–1 NaHCO3, 1.1 mmol L^–1 NaH2PO4, 1.25 mmol L^–1 CaCl2, and 5.5 mmol L^–1 glucose at 37 °C (pH 7.4)] and were continuously carboxygenated (95% O2/5% CO2)[29]. Contractile responses to the stimulations with Ang II and analogs 1 and 2 (10^–8 mol L^–1) were measured with a TRI201 tension transducer (PanLab) through an amplifier (Powerlab 4/30). Data were collected through Labchart Pro V7 software. The resting tension was maintained at 0.5 g and the tissues were left to equilibrate for 90 min. The bath solution was frequently changed. The maximal effect was obtained by comparing contractile responses induced by carbachol (10^–8 mol L^–1).

human red blood cells = format: cell-based; conditions: for Hemolysis of red blood cells: red cells of human, 24 h, 1e-8 mol L^−1
Experimental: Assessing toxicity is a key requirement for translating novel compounds into the clinic. Therefore, we evaluated the hemolytic activity of Ang II peptide derivatives 1 and 2 towards erythrocyte human cells. Erythrocytes were seeded in 96-well plates in the absence (negative control) or presence of 10^−8 mol L^−1 of the analogs, as described in the Methods Section.
Figure 3 Hemolytic assay of human red blood cells. Red blood cells were treated with distilled water which causes lysis of red blood cells; uninfected erythrocytes were kept in the same conditions used in the invasion assay with a control and each peptide tested (10^−8 mol L^−1), at 37 °C for 24 h. After incubation, the supernatant was collected, clarified at 900 g/8 min and the hemoglobin content was detected in a spectrophotometer at […]. **** denotes statistical significance of group compared with distilled water value p < 0.05.
The hemolytic effect of analogs 1 and 2 was determined in uninfected erythrocytes. Cells were maintained in the same culture conditions in the presence of 10^−8 mol L^−1 of peptides for 24 h. Erythrocytes were centrifuged at 900 g for 8 min. The free hemoglobin in the supernatant was monitored by spectrophotometer at 550 nm. Untreated cells were used as negative control to rule out nonspecific hemolysis. The hemolytic activity was expressed as a percentage of the control. This positive control (100% hemolysis) was prepared by treating the erythrocytes with distilled water.

[1] = tested on: Plasmodium gallinaceum sporozoites; assay: Effect of peptides on salivary gland-derived sporozoites (membrane permeability, propidium iodide fluorescence microscopy); format: cell-based; conditions: digitonin 40 μmol L–1 in PBS
Experimental: The effect of the peptides on sporozoites was determined in vitro by fluorescence microscopy. Briefly, the parasites were incubated for one hour in the presence of each peptide and the fluorophore propidium iodide, which stains dead and dying cells. The results are reported as the percent of fluorescent (i.e., inactivated) sporozoites. The analyses were carried out in triplicate, using three different mosquito batches (n = 9).
Aedes aegypti RED strain was used in experiments due to their hypersensitivity to P. gallinaceum parasite. Mosquitoes were reared using standard laboratory procedures. An aliquot of frozen chicken blood infected with the P. gallinaceum strain 8 A was obtained from A Krettli (René Rachou Institute of Research, FIOCRUZ, MG, Brazil). […]
Nine thousand P. gallinaceum mature sporozoites were pulled from the salivary glands of A. aegypti and incubated in 50 μL of PBS solution, with 40 μmol L^–1 digitonin (positive control), 60 μmol L^–1 peptides or negative control (PBS solution), at 37 °C for one hour. Cell membrane integrity was then observed using a Carl Zeiss inverted fluorescence microscope (model Observer Axio Vision A.1) coupled to an image capture Zeiss AxioCam HR digital camera (1,300 × 1,030 pixels resolution and 8-bit quantization) after addition of 1 μL of the propidium iodide aqueous solution (200 μmol L^–1) in 5 μL of total solution volume. […]

[2] = tested on: Plasmodium gallinaceum sporozoites; conditions: cited from earlier work; for Antiplasmodial activity against P. gallinaceum sporozoites, linear peptides: ref 12 (Silva et al.)
Source text: Silva et al.[12], tested several linear Ang II derivative peptides in vitro using both the P. gallinaceum sporozoite and the P. falciparum blood stage models. Two short peptides presented high antiplasmodial activity: YHPF and VIPF presented 89% and 94% activity against P. gallinaceum, respectively, and ~50% activity against erythrocyte invasion by P. falciparum. […] Analog 4 was designed via the removal of these two residues. Silva et al., studied linear peptides and observed that peptide DRVYHIPF had potent biological activity (94% against P. gallinaceum sporozoites). The sequence of peptide 1 is similar to that of Ang II, whereas peptide 2 presents a sequence that resembles Ang II with modifications in His and Ile residues (DRVYHIPF). Peptide 4, on the other hand, lacks Ile and His amino acid residues within its backbone. […] Peptide sequence CDRVCYIHPF[7] presented 76% (±3) antiplasmodial activity vs sporozoites of P. gallinaceum. Silva et al., studied different linear Ang II derivative peptides[12] and observed that when His and Ile residues are inverted, the antiplasmodial activity increased cf. peptides with the native primary sequence. To verify this observation, here we inverted the position of Ile and His residues in peptide 3. The resulting peptide presented increased antiplasmodial ...

Plasmodium falciparum [3] = assay: Erythrocytic invasion assay (new ring formation) and IC50 determination; format: cell-based; conditions: 10^−8 mol L^−1 peptide, 24 h, W2 strain, 2–3% parasitemia, 5% hematocrit; reduction versus untreated control, normalized
Experimental: The effect of peptides in the P. falciparum erythrocytic cycle was assayed in vitro against a synchronized culture in the schizont form of P. falciparum, maintaining 5% hematocrit and 2% parasitemia. Twenty-four hours after treatment, all peptides reduced new ring formation within erythrocytes at 10^−8 mol L^−1, which was described by Saraiva et al. as the ideal concentration for these inhibition assays. The tests were carried out in duplicate and a total of ten experiments were performed (n = 10). Data were normalized due to differences between controls from each assay. It was observed that three analogs reduced the number of rings formed in the blood stage, but only analogs 1 and 2 presented inhibition >40%, when compared to the untreated controls (Fig. 2B).
The erythrocytic cycle of Plasmodium falciparum was maintained in vitro by culturing W2 strains in 1640 medium, supplemented with A-type human blood and serum, as described by Saraiva et al.[15] […]
To synchronize the parasite cultures into the ring stage, we used a sorbitol solution (5%) according to Lambros and Vanderberg[28]. […] Invasion was evaluated by the appearance of new ring forms. The invasion percentage was determined by optical microscopy (1000x magnification), which represents the total number of cells infected by rings in 100 erythrocytes in at least ten random microscopic fields. […]

Plasmodium = conditions: cited from earlier work; for Biological activity (antiplasmodial): ref 4 (Maciel et al.); for Antiplasmodial activity relative to Ang II (in words): lactam bridge analogs, ref 6 (Torres et al.)
Source text: Three of these analogs (i.e., EDRKVYI ...

Plasmodium falciparum [4] = conditions: ref 12 (Silva et al.); cited from earlier work
Source text: Table 1 Design of angiotensin II-derived synthetic peptides. Purity of peptides determined by LC/MS is shown, along with their respective antiplasmodial activity and design rationale. | column: Antiplasmodial activity vs P. falciparum (new ring formation%) || Silva et al.[12], tested several linear Ang II derivative peptides in vitro using both the P. gallinaceum sporozoite and the P. falciparum blood stage models. Two short peptides presented high antiplasmodial activity: YHPF and VIPF presented 89% and 94% activity against P. gallinaceum, respectively, and ~50% activity against erythrocyte invasion by P. falciparum. […] The authors observed that Ang II reduced by 47% reinfection caused by ring forms. Silva and colleagues tested linear Ang II derivatives using the same model and observed that two short peptides were capable of reducing parasite reinfection >50%[12]. In this work, we tested designer peptides using the P. falciparum erythrocytic cycle and observed that two peptides (1 and 2) were able to reduce ... || (+ 1 further places)

Compound: CC[C@H](C)[C@@H]1NC(=O)[C@H](Cc2ccc(O)cc2)NC(=O)[C@H](C(C)C)NC(=O)[C@H](CCCNC(=N)N)NC(=O)[C@H](CC(=O)O)NC(=O)[C@@H](N)CSSC[C@@H](C(=O)O)NC(=O)[C@H](Cc2ccccc2)NC(=O)[C@@H]2CCCN2C(=O)[C@H](Cc2c[nH]cn2)NC1=O [Peptide 1] (H-CDRVYIHPFC-OH; disulfide 1-10)
- Contractile response / vasoconstriction (in words) (stomach fundus): complete suppression of vasoconstriction
- Hemolytic effect (in words) (human red blood cells): did not present hemolytic effects
- Hemolysis of red blood cells (human red blood cells): < 6%

Compound: CC[C@H](C)[C@@H]1NC(=O)[C@H](Cc2c[nH]cn2)NC(=O)[C@H](Cc2ccc(O)cc2)NC(=O)[C@H](C(C)C)NC(=O)[C@H](CCCNC(=N)N)NC(=O)[C@H](CC(=O)O)NC(=O)[C@@H](N)CSSC[C@@H](C(=O)O)NC(=O)[C@H](Cc2ccccc2)NC(=O)[C@@H]2CCCN2C1=O [Peptide 2] (H-CDRVYHIPFC-OH; disulfide 1-10)
- Contractile response / vasoconstriction (in words) (stomach fundus): complete suppression of vasoconstriction
- Hemolytic effect (in words) (human red blood cells): did not present hemolytic effects
- Hemolysis of red blood cells (human red blood cells): < 6%

Compound: C[C@@H]1CC[C@@]2(OC1)O[C@H]1[C@@H](O)[C@H]3[C@@H]4CC[C@H]5C[C@@H](O[C@@H]6O[C@H](CO)[C@H](O[C@@H]7O[C@H](CO)[C@@H](O)[C@H](O[C@@H]8OC[C@@H](O)[C@H](O)[C@H]8O)[C@H]7O[C@@H]7O[C@H](CO)[C@H](O)[C@H](O[C@@H]8O[C@H](CO)[C@@H](O)[C@H](O)[C@H]8O)[C@H]7O)[C@H](O)[C@H]6O)[C@H](O)C[C@]5(C)[C@H]4CC[C@]3(C)[C@H]1[C@@H]2C [digitonin]
- Lysis of parasite membranes by the positive control [1]: 100%

Compound: CDRVCYIHPF (disulfide 1-5 (inferred)) [S-S restricted Ang II analog of Torres et al]
- Antiplasmodial activity vs sporozoites of P. gallinaceum, S-S restricted analog ([2]; ref 7 (Torres et al.)): 76%

Compound: CVIPFC (disulfide 1-6 (inferred)) [Peptide 8]
- Antiplasmodial activity vs P. falciparum (new ring formation%) (Plasmodium falciparum [3]): 3.5%

Compound: DDRKVYIHPF [VC-4, linear Ang II analog of Maciel et al]
- Biological activity (antiplasmodial) (Plasmodium): 64%

Compound: DRDVKYIHPF (also: sidechain bridge or staple (positions not given here)) [VC-5, restricted (lactam bridge) Ang II analog of Maciel et al]
- Biological activity (antiplasmodial) (Plasmodium): 78%

Compound: DRVYHIPF [linear Ang II derivative of Silva et al., linear counterpart of peptide 2]
- Antiplasmodial activity against P. gallinaceum sporozoites, linear peptides [2]: 94%

Compound: EDRKVYIHPF (also: sidechain bridge or staple (positions not given here)) [lactam bridge Ang II analog of Torres et al]
- Antiplasmodial activity relative to Ang II (in words) (Plasmodium): maintained the antiplasmodial activity of Ang II

Compound: EDRVOYIHPF (sidechain bridge or staple) [lactam bridge Ang II analog of Torres et al]
- Antiplasmodial activity relative to Ang II (in words) (Plasmodium): maintained the antiplasmodial activity of Ang II

Compound: VIPF [short linear Ang II derivative of Silva et al]
- Activity against erythrocyte invasion by P. falciparum, linear peptides (Plasmodium falciparum [4]): ~ 50%
- Antiplasmodial activity against P. gallinaceum sporozoites, linear peptides [2]: 94%

Compound: YHPF [short linear Ang II derivative of Silva et al]
- Activity against erythrocyte invasion by P. falciparum, linear peptides (Plasmodium falciparum [4]): ~ 50%
- Antiplasmodial activity against P. gallinaceum sporozoites, linear peptides [2]: 89%
